Results as given in doi:10.1101/171595v1 (biorxiv, 2017).

Tested on: HpaM
Details: read-out: apparent Km; 50 mM PBS pH 7.0, 0.2 mM FAD, 5HPA as co-substrate, 25°C

In the case of NC(=O)C1=CN([C@@H]2O[C@H](COP(=O)(O)OP(=O)(O)OC[C@H]3O[C@@H](n4cnc5c(N)ncnc54)[C@H](O)[C@@H]3O)[C@@H](O)[C@H]2O)C=CC1 [NADH], the Km is reported as 37.8 ± 3.4 µM.
